In US20250026721A1, “COMPOUNDS AND METHODS FOR MODULATING RAS-PI3K” (Vividion Therapeutics, Inc., priority 2023, published 2025):

What was measured:
[1] = test system: pAKT(S473) in H358 cell line; test: In vitro Phospho-AKT(S473) HTRF analysis in H358 cells; assay type: cell-based; conditions: for IC50 / Emax: Homo sapiens, NCI-H358, 0.5 h; for IC50: H358 cells, 30 minutes at 37° C.; for Emax: read-out: H358 pAKT Imax % control
Description: Example 5. In Vitro Phosgho-AKT(S473) Analysis
Functional activity of the compounds to inhibit pAKT were assessed in FaDu or H358 cell lines as indicated below.
• Complete Media • FBS, Corning catalog #35-010-CV • Anti-Anti, Gibco catalog #15240-062 • 96 well plate, Corning catalog #3610 • TrypLE, Gibco catalog #12604013 • Phospho-AKT(S473) HTRF kit, Cisbio catalog #64AKSPET
Cells were detached from the tissue culture flask with TrypLE. The cells were pelleted at 500×g for 5 min, TrypLe was removed and then resuspended in the necessary volume of media+1% FBS to give the appropriate cell density (17,500 cells/mL for FaDu; 20,000 cells/mL for H358). 100 μL of cell suspension/well was dispensed into the 96-well plate while keeping the outer wells of the plate free of cells and filled with PBS to prevent evaporation of interior wells. The plate was incubated at 37° C. and allowed to adhere overnight. The cells were treated with a dose response of compound and incubated at 37° C. for 30 minutes. The cells were then processed and pAKT(S473) levels were assessed following the specifications of the Cisbio HTRF kit.

[2] = test system: pAKT(S473) in FaDu cell line; test: In vitro Phospho-AKT(S473) HTRF analysis in FaDu cells; assay type: cell-based; conditions: for IC50 / Emax: Homo sapiens, 0.5 h; for IC50: FaDu cells, 30 minutes at 37° C.; for Emax: FaDu, read-out: FaDu pAKT Imax % control
Outline: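 FaDu or H358 cells were plated overnight in medium with 1% FBS, then exposed to a compound dose response for 30 minutes at 37° C. Phospho-AKT(S473) levels were measured by HTRF.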

PIK3CA = target: T1, PIK3CA (Homo sapiens, UniProt P42336); test: In vitro ELISA target engagement assay for PIK3CA in Jurkat cellular lysate (competition with PIK3CA Biotin Probe); assay type: binding; conditions: 1 hour at rt, then 500 nM PIK3CA Biotin Probe, read-out: Elisa Target Engagement Assay (TE50)
T1 construct: endogenous in cells; host or cells: Jurkat cell lysate
T1 sequence (P42336 whole entry): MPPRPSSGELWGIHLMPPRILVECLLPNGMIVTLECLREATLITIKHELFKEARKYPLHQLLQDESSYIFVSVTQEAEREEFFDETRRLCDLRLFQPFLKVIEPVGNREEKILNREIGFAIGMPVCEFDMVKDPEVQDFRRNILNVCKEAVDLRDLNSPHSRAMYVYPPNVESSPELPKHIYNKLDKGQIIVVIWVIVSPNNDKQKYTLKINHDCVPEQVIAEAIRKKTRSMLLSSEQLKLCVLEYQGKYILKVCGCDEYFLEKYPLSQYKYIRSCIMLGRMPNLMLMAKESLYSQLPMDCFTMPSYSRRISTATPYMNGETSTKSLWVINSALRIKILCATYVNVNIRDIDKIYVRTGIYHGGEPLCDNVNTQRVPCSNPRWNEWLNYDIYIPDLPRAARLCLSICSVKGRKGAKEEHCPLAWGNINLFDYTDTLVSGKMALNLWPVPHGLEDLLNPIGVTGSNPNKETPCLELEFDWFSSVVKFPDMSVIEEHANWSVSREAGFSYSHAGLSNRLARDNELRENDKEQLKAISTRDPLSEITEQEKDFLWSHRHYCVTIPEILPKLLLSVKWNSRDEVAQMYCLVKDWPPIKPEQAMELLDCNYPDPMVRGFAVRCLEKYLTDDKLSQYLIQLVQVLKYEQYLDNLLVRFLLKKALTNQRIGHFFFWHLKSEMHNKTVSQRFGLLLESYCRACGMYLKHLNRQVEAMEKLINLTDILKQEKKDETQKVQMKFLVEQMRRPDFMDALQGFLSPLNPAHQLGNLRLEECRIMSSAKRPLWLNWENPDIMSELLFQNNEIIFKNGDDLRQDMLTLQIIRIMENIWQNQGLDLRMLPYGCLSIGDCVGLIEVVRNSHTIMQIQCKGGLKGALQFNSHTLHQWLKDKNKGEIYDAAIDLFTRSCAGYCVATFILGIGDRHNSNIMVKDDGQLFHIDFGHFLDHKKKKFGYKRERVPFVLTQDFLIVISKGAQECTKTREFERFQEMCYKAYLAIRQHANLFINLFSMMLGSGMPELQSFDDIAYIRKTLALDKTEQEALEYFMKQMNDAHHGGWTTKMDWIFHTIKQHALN
T1 sequence (P27986 whole entry partner): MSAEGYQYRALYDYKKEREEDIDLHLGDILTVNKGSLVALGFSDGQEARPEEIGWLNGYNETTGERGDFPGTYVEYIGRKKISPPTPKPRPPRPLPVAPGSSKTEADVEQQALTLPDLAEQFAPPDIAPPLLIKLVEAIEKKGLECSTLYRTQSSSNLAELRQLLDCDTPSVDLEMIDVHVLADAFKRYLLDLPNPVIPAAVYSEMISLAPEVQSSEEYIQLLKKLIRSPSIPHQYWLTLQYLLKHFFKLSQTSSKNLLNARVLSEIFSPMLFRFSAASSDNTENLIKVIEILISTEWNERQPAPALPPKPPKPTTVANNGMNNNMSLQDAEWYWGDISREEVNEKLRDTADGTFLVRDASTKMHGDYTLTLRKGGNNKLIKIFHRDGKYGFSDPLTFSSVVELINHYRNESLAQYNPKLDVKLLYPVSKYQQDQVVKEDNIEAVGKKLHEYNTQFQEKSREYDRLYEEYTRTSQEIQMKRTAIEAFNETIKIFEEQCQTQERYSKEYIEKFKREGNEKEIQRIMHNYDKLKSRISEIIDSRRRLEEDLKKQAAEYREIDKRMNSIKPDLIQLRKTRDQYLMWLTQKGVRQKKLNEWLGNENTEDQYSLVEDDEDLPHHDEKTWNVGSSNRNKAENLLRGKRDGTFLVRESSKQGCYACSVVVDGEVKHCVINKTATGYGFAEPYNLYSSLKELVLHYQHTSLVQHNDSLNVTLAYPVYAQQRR
Outline: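 Competition format in Jurkat lysate: compound (serial dilutions, top 200 μM) for 1 h at rt, then 500 nM final biotinylated PIK3CA probe for 1 h at rt. Sandwich ELISA with capture antibody and Neutravidin-HRP luminescence read-out measured probe-labelled PIK3CA, giving TE50.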

PIK3CA_C242 = target: T2, PIK3CA_C242 (Homo sapiens, UniProt P42336); test: Proteomic TE50 (IA-DTB / TMT mass spectrometry) in Jurkat cell lysate; assay type: binding; conditions: 1 hour at rt, 7-point dose response
T2 construct: endogenous in cells; host or cells: Jurkat cell lysate
T2 sequence (P42336 whole entry): as the sequence (P42336 whole entry) above
T2 sequence (P27986 whole entry partner): as the sequence (P27986 whole entry partner) above
Outline: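 Cysteine engagement was read by targeted TMT MS3 of the IA-DTB-labelled, streptavidin-enriched C242 tryptic peptide. Beforehand, Jurkat lysate was exposed to a 7-point 1:5 compound series for 1 h at rt, then to 200 μM IA-DTB for 1 h. Reporter S/N curves gave TE50.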

| IC50 [1] | IC50 [2] | IC50 (PIK3CA) | IC50 (PIK3CA_C242) | Structure (SMILES) | Emax [1] | Emax [2] | absolute inhibition of pAKT ([1]; H358 cell line, internal standard, variation between runs) | absolute inhibition of pAKT ([2]; FaDu cell line, internal standard, variation between runs) |
| --- | --- | --- | --- | --- | --- | --- | --- | --- |
| 0.396 µM | 0.428 µM | 0.65 µM | – | C[C@H](/C=C\S(C)(=O)=O)NC(=O)[C@@]1(F)CCCN(C(=O)[C@H]2CN(Cc3ccccc3)C[C@H]2c2ccccc2Cl)CC1 (single isomer, unassigned) [Compound 305, (R)-1-((3*R,4*R)-1-benzyl-4-(2-chlorophenyl)pyrrolidine-3-carbonyl)-4-fluoro-N-((R,Z)-4-(methylsulfonyl)but-3-en-2-yl)azepane-4-carboxamide] | 90.7% | 94.3% | – | – |
| 0.103 µM | 0.129 µM | 0.134 µM | – | C[C@H](/C=C\S(C)(=O)=O)NC(=O)[C@@]1(F)CCCN(C(=O)[C@H]2CN(CC(F)F)C[C@H]2c2ccccc2Cl)CC1 [Compound 197, (R)-1-((3R,4R)-4-(2-chlorophenyl)-1-(2,2-difluoroethyl)pyrrolidine-3-carbonyl)-4-fluoro-N-((R,Z)-4-(methylsulfonyl)but-3-en-2-yl) azepane-4-carboxamide] | 91.4% | 89% | – | – |
| 0.329 µM | 0.45 µM | 0.53 µM | – | C[C@H](/C=C\S(C)(=O)=O)NC(=O)[C@@]1(F)CCCN(C(=O)[C@H]2CN(CCC(F)(F)F)C[C@H]2c2ccccc2Cl)CC1 [Compound 196, (R)-1-((3R,4R)-4-(2-chlorophenyl)-1-(3,3,3-trifluoropropyl)pyrrolidine-3-carbonyl)-4-fluoro-N-((R,Z)-4-(methylsulfonyl)but-3-en-2-yl)azepane-4-carboxamide] | 96.3% | 86.4% | – | – |
| 0.123 µM | 0.113 µM | 0.19 µM | – | C[C@H](/C=C\S(C)(=O)=O)NC(=O)[C@@]1(F)CCCN(C(=O)[C@H]2CN(CC(F)(F)Cl)C[C@H]2c2ccccc2Cl)CC1 [Compound 195, (R)-1-((3R,4R)-1-(2-chloro-2,2-difluoroethyl)-4-(2-chlorophenyl)pyrrolidine-3-carbonyl)-4-fluoro-N-((R,Z)-4-(methylsulfonyl)but-3-en-2-yl)azepane-4-carboxamide] | 85% | 96.9% | – | – |
| – | 0.0965 µM | – | – | C[C@H](/C=C\S(C)(=O)=O)NC(=O)C1(F)CCN(S(=O)(=O)c2ccc(Br)cc2-c2ccccc2Cl)CC1 [Compound 47, 1-[4-bromo-2-(2-chlorophenyl)phenyl]sulfonyl-4-fluoro-N—[(Z,1R)-1-methyl-3-methylsulfonyl-allyl]piperidine-4-carboxamide] | – | 100% | 40-89% | 43-98% |
| 0.0826 µM | 0.0789 µM | 0.0927 µM | – | C[C@H](/C=C\S(C)(=O)=O)NC(=O)[C@@]1(F)CCCN(C(=O)[C@H]2CN(CC(F)(F)F)C[C@H]2c2c(F)cccc2Cl)CC1 [Compound 171, (R)-1-((3R,4R)-4-(2-chloro-6-fluorophenyl)-1-(2,2,2-trifluoroethyl)pyrrolidine-3-carbonyl)-4-fluoro-N—((R,Z)-4-(methylsulfonyl)but-3-en-2-yl)azepane-4-carboxamide] | 101% | 97.8% | – | – |
| 0.115 µM | 0.214 µM | 0.164 µM | – | C[C@H](/C=C\S(C)(=O)=O)NC(=O)[C@@]1(F)CCCN(C(=O)[C@H]2CN(CC(F)(F)F)C[C@H]2c2ccccc2Cl)CC1 [Compound 165, (R)-1-((3R,4R)-4-(2-chlorophenyl)-1-(2,2,2-trifluoroethyl)pyrrolidine-3-carbonyl)-4-fluoro-N—((R,Z)-4-(methylsulfonyl)but-3-en-2-yl)azepane-4-carboxamide] | 95.7% | 96.7% | – | – |
| 0.953 µM | – | 1.45 µM | 0.98 µM | COc1ccc(Cl)c(-c2cc(Cl)ncc2S(=O)(=O)N2CCC(F)(C(=O)N[C@H](C)/C=C\S(C)(=O)=O)CC2)c1 [Compound 217, (R,Z)-1-((6-chloro-4-(2-chloro-5-methoxyphenyl)pyridin-3-yl)sulfonyl)-4-fluoro-N-(4-(methylsulfonyl)but-3-en-2-yl)piperidine-4-carboxamide] | 74.6% | – | – | – |
| 0.0646 µM | – | 0.085 µM | – | C[C@H](/C=C\S(C)(=O)=O)NC(=O)[C@@]1(F)CCCN(C(=O)[C@H]2CN(CC3(F)CC3)C[C@H]2c2c(F)cccc2Cl)CC1 (single isomer, unassigned) [Compound 184, (R)-1-((3*R,4*R)-4-(2-chloro-6-fluorophenyl)-1-((1-fluorocyclopropyl)methyl)pyrrolidine-3-carbonyl)-4-fluoro-N-((R,Z)-4-(methylsulfonyl)but-3-en-2-yl)azepane-4-carboxamide] | 102% | – | – | – |
| 1.5 µM | – | 0.91 µM | – | C[C@@H](/C=C\S(C)(=O)=O)NC(=O)[C@@]1(F)CCCN(C(=O)[C@H]2CN(CC(F)(F)F)C[C@H]2c2c(F)cccc2Cl)CC1 [Compound 297, (R)-1-((3R,4R)-4-(2-chloro-6-fluorophenyl)-1-(2,2,2-trifluoroethyl)pyrrolidine-3-carbonyl)-4-fluoro-N-((S,Z)-4-(methylsulfonyl)but-3-en-2-yl)azepane-4-carboxamide] | 87.6% | – | – | – |
| 0.123 µM | – | 0.29 µM | – | C[C@H](/C=C\S(C)(=O)=O)NC(=O)[C@@]1(F)CCCN(C(=O)[C@H]2CN(CC3(F)CC3)C[C@H]2c2ccccc2Cl)CC1 [Compound 185, (R)-1-((3R,4R)-4-(2-chlorophenyl)-1-((1-fluorocyclopropyl)methyl)pyrrolidine-3-carbonyl)-4-fluoro-N-((R,Z)-4-(methylsulfonyl)but-3-en-2-yl)azepane-4-carboxamide] | 95.6% | – | – | – |
| 0.326 µM | – | 0.52 µM | – | Cc1ccccc1[C@@H]1CN(CC(F)(F)F)C[C@@H]1C(=O)N1CCC[C@](F)(C(=O)N[C@H](C)/C=C\S(C)(=O)=O)CC1 (single isomer, unassigned) [Compound 224, (R)-4-fluoro-N-((R,Z)-4-(methylsulfonyl)but-3-en-2-yl)-1-((3*R,4*R)-4-(o-tolyl)-1-(2,2,2-trifluoroethyl)pyrrolidine-3-carbonyl) azepane-4-carboxamide] | 81.2% | – | – | – |
| 0.067 µM | – | 0.43 µM | – | C[C@H](/C=C\S(C)(=O)=O)NC(=O)C1(F)CCN(C(=O)[C@H]2CCC(C)(C)C[C@@H]2c2ccccc2Cl)CC1 (racemic) [Compound 255, 1-((1*S,2*S)-2-(2-chlorophenyl)-4,4-dimethylcyclohexane-1-carbonyl)-4-fluoro-N-((R,Z)-4-(methylsulfonyl)but-3-en-2-yl)piperidine-4-carboxamide] | 86.7% | – | – | – |
| 0.642 µM | – | 0.4 µM | – | C[C@H](/C=C/S(C)(=O)=O)NC(=O)[C@@]1(F)CCCN(C(=O)[C@H]2CN(CC(F)(F)F)C[C@H]2c2c(F)cccc2Cl)CC1 [Compound 296, (R)-1-((3R,4R)-4-(2-chloro-6-fluorophenyl)-1-(2,2,2-trifluoroethyl)pyrrolidine-3-carbonyl)-4-fluoro-N-((R,E)-4-(methylsulfonyl)but-3-en-2-yl)azepane-4-carboxamide] | 69.4% | – | – | – |
| 0.0566 µM | – | 0.078 µM | – | C[C@H](/C=C\S(C)(=O)=O)NC(=O)[C@@]1(F)CCCN(C(=O)[C@H]2CN(CC(C)(F)F)C[C@H]2c2c(F)cccc2Cl)CC1 (single isomer, unassigned) [Compound 183] | 93.2% | – | – | – |
| 0.165 µM | – | 0.39 µM | – | C[C@H](/C=C\S(C)(=O)=O)NC(=O)C1(F)CCN(C(=O)[C@H]2CN(CC(C)(F)F)C[C@H]2c2ccccc2Cl)CC1 [Compound 179, 1-((3R,4R)-4-(2-chlorophenyl)-1-(2,2-difluoropropyl)pyrrolidine-3-carbonyl)-4-fluoro-N-((R,Z)-4-(methylsulfonyl)but-3-en-2-yl)piperidine-4-carboxamide] | 106% | – | – | – |
| 0.464 µM | – | 0.54 µM | – | C[C@H](/C=C\S(C)(=O)=O)NC(=O)[C@@]1(F)CCCN(C(=O)[C@H]2CN(CC(F)(F)F)C[C@H]2c2cccc(F)c2F)CC1 (single isomer, unassigned) [Compound 173, (R)-1-((3*R,4*R)-4-(2,3-difluorophenyl)-1-(2,2,2-trifluoroethyl)pyrrolidine-3-carbonyl)-4-fluoro-N-((R,Z)-4-(methylsulfonyl)but-3-en-2-yl)azepane-4-carboxamide] | 85.5% | – | – | – |
